Laboratory results reported in US7763728B2, “Tetrahydropyridothiophenes” (4SC AG, priority 2005, dated 2010).

Assays:
[1] = tested on: RKO (RKOp27) human colon adenocarcinoma cells; test: Alamar Blue cell viability assay, anti-proliferative/cytotoxic activity on proliferating (uninduced) RKOp27 cells; assay type: cell-based; conditions: 72 hours incubation, absence of the inducer Ponasterone A, read-out: IC50 RKO p27 uninduced (proliferating)
Summary of the method: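 RKOp27 subclones seeded at 5000 cells/well, compounds added after 24 h in DMEM/10% FCS, quadruplicates, 72 h at 37 °C, 5% CO2. Alamar Blue fluorescence (ex 544/em 590 nm) normalised to untreated cells (1% DMSO medium) as 100%; IC50 from concentration-effect curves.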

[2] = tested on: RKO colon adenocarcinoma cells (RKOp27) arrested by the expression of ectopic p27Kip1; test: Alamar Blue cell viability assay on RKOp27 cells arrested by p27Kip1 expression induced by Ponasterone A; assay type: cell-based; conditions: Homo sapiens, 72 hours incubation, 10 μM Ponasterone A, read-out: IC50 RKO p27 induced (arrested)
Summary of the method: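 RKOp27 cells, 15000/well, held in DMEM with 10% FCS and with or without 10 μM Ponasterone A to induce p27Kip1 arrest. Compound dilutions added 24 h after seeding, then 72 h at 37 °C in quadruplicate. Alamar Blue fluorescence (544/590 nm) gave % viability relative to untreated cells.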

SMILES	IC50 [2]	IC50 [1]
COc1ccc(C)cc1CCC(=O)Nc1sc2c(c1C#N)CCN(C(=O)CCc1ccncn1)C2 [Example 38, N-[3-Cyano-6-(3-pyrimidin-4-yl-propanoyl)-4,5,6,7-tetrahydro-thieno[2,3-c]pyridin-2-yl]-3-(2-methoxy-5-methyl-phenyl)-propionamide]	> 100 µM	300 to 2000 nM
COc1ccccc1CCC(=O)Nc1sc2c(c1C#N)CCN(C(=O)CCc1cccnc1)C2 [Example 1, N-[3-Cyano-6-(3-pyridin-3-yl-propanoyl)-4,5,6,7-tetrahydro-thieno[2,3-c]pyridin-2-yl]-3-(2-methoxy-phenyl)-propionamide]	> 100 µM	≤ 300 nM
COc1ccccc1CCC(=O)Nc1sc2c(c1C#N)CCN(C(=O)COC(C)=O)C2 [Example 7, Acetic acid 2-{3-cyano-2-[3-(2-methoxy-phenyl)-propanoylamino]-4,7-dihydro-5H-thieno[2,3-c]pyridin-6-yl}-2-oxo-ethyl ester]	> 100 µM	≤ 300 nM
CCOc1ccccc1CCC(=O)Nc1sc2c(c1C#N)CCN(C(=O)COCCOC)C2 [Example 25, N-{3-Cyano-6-[2-(2-methoxy-ethoxy)-ethanoyl]-4,5,6,7-tetrahydro-thieno[2,3-c]pyridin-2-yl}-3-(2-ethoxy-phenyl)-propionamide]	> 100 µM	≤ 300 nM
CCOc1cccc(C(C)CC(=O)Nc2sc3c(c2C#N)CCN(C(=O)Cc2ccccn2)C3)c1 (racemic) [Example 61, (RS)—N-[3-Cyano-6-(2-pyridin-2-yl-ethanoyl)-4,5,6,7-tetrahydro-thieno[2,3-c]pyridin-2-yl]-3-(3-ethoxy-phenyl)-butyramide]	> 100 µM	300 to 2000 nM
COc1cccc(CCC(=O)Nc2sc3c(c2C#N)CCN(C(=O)Cn2ccnc2C)C3)c1 [Example 129, N-{3-Cyano-6-[2-(2-methyl-imidazol-1-yl)-ethanoyl]-4,5,6,7-tetrahydro-thieno[2,3-c]pyridin-2-yl}-3-(3-methoxy-phenyl)-propionamide]	≥ 40 µM	300 to 2000 nM

Further lines, with some results ahead:

IC50 [2]	SMILES	IC50 [1]
≥ 40 µM	COc1ccccc1CCC(=O)Nc1sc2c(c1C#N)CCN(C(=O)Cc1ccncc1)C2 [Example 3, N-[3-Cyano-6-(2-pyridin-4-yl-ethanoyl)-4,5,6,7-tetrahydro-thieno[2,3-c]pyridin-2-yl]-3-(2-methoxy-phenyl)-propionamide]	≤ 300 nM
≥ 10 µM	COc1ccccc1CCC(=O)Nc1sc2c(c1C#N)CCN(C(=O)CCc1nccn1C)C2 [Example 116, N-{3-Cyano-6-[3-(1-methyl-1H-imidazol-2-yl)-propanoyl]-4,5,6,7-tetrahydro-thieno[2,3-c]pyridin-2-yl}-3-(2-methoxy-phenyl)-propionamide]	≤ 300 nM
≥ 40 µM	CCOc1ccccc1CCC(=O)Nc1sc2c(c1C#N)CCN(C(=O)Cn1ccnc1)C2 [Example 85, N-[3-Cyano-6-(2-imidazol-1-yl-ethanoyl)-4,5,6,7-tetrahydro-thieno[2,3-c]pyridin-2-yl]-3-(2-ethoxy-phenyl)-propionamide]	≤ 300 nM
≥ 10 µM	COc1ccccc1C(C)CC(=O)Nc1sc2c(c1C#N)CCN(C(=O)CCn1ccnc1C)C2 (racemic) [Example 105, (RS)—N-{3-Cyano-6-[3-(2-methyl-imidazol-1-yl)-propanoyl]-4,5,6,7-tetrahydro-thieno[2,3-c]pyridin-2-yl}-3-(2-methoxy-phenyl)-butyramide]	300 to 2000 nM
≥ 10 µM	COc1ccc(C)cc1CCC(=O)Nc1sc2c(c1C#N)CCN(C(=O)CCn1cc(C)nc1C)C2 [Example 163, N-{3-Cyano-6-[3-(2,4-dimethyl-imidazol-1-yl)-propanoyl]-4,5,6,7-tetrahydro-thieno[2,3-c]pyridin-2-yl}-3-(2-methoxy-5-methyl-phenyl)-propionamide]	300 to 2000 nM
